Results published in the supplement of paper PMC10307832.

What was measured:
Experiment in all cases: relative viability (nuclei count vs DMSO), 5 days (fraction); higher = more cells survive
[1] = compound: O=S(=O)(c1ccccc1)N(CC(F)(F)F)c1ccc(C(O)(C(F)(F)F)C(F)(F)F)cc1
Summary of the method: (§1)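 Viability was read as treated-well nuclei divided by vehicle-well nuclei, using the median across plates. Lung cancer cell lines in 1536-well plates were kept overnight at 37 °C, pinned with five √10-spaced library-drug doses, and after 5 days were Hoechst-stained, imaged at 4× and counted in MetaXpress. Plates passed only with control CV below 25% and at least one doubling.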

RO-3306 = compound: C1=CC2=C(C=CC(=C2)C=C3C(=O)NC(=NCC4=CC=CS4)S3)N=C1 [RO-3306]
Summary of the method: as §1

Foretinib = compound: COc1cc2c(Oc3ccc(NC(=O)C4(C(=O)Nc5ccc(F)cc5)CC4)cc3F)ccnc2cc1OCCCN1CCOCC1 [Foretinib] (anchor plate); settings: 0.25 µM
Summary of the method: as §1

RO-3306 + Pictilisib = compound: C1=CC2=C(C=CC(=C2)C=C3C(=O)NC(=NCC4=CC=CS4)S3)N=C1 [RO-3306] + CS(=O)(=O)N1CCN(Cc2cc3nc(-c4cccc5[nH]ncc45)nc(N4CCOCC4)c3s2)CC1 [Pictilisib] (partner 1 µM)
Summary of the method: (§2)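 Lung cancer cell lines were seeded in 1536-well plates and dosed by pin tool the next day, with either a single drug or a fixed anchor-drug dose combined with five library-drug doses (not always all listed) spaced in √10 steps. Five days later, one step fixed the cells and stained their nuclei (final 0.05% Triton X-100, 1% formaldehyde, 1 ug/ml Hoechst), and nuclei were counted on 4× images. Relative viability is the nuclei count in treated wells divided by the count in vehicle wells, and each value is the median of duplicate plates.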

RO-3306 + Crizotinib = compound: C1=CC2=C(C=CC(=C2)C=C3C(=O)NC(=NCC4=CC=CS4)S3)N=C1 [RO-3306] + C[C@@H](Oc1cc(-c2cnn(C3CCNCC3)c2)cnc1N)c1c(Cl)ccc(F)c1Cl [Crizotinib] (partner 1 µM)
Summary of the method: as §2

Row | Cell Line | relative viability ([1]; 0.8 µM) | relative viability ([1]; 2.53 µM) | relative viability ([1]; 8 µM) | relative viability (RO-3306; 0.01 µM) | relative viability (RO-3306; 0.03162 µM) | relative viability (RO-3306; 0.1 µM) | relative viability (RO-3306; 0.3162 µM) | relative viability (RO-3306; 1 µM) | relative viability (Foretinib) | relative viability (RO-3306 + Pictilisib; first compound 0.01 µM) | relative viability (RO-3306 + Pictilisib; first compound 0.03162 µM) | relative viability (RO-3306 + Pictilisib; first compound 0.1 µM) | relative viability (RO-3306 + Pictilisib; first compound 0.3162 µM) | relative viability (RO-3306 + Pictilisib; first compound 1 µM) | relative viability (RO-3306 + Crizotinib; first compound 0.01 µM) | relative viability (RO-3306 + Crizotinib; first compound 0.03162 µM) | relative viability (RO-3306 + Crizotinib; first compound 0.1 µM) | relative viability (RO-3306 + Crizotinib; first compound 0.3162 µM) | relative viability (RO-3306 + Crizotinib; first compound 1 µM)
1 | LXF-289 | 0.949 | 0.882 | 0.843 | 1.01 | 1 | 1.01 | 1.02 | 1 | 0.991 | 0.781 | 0.677 | 0.806 | 0.805 | 0.774 | 0.846 | 0.817 | 0.808 | 0.726 | 0.76
2 | RERF-LC-KJ | 1.02 | 0.87 | 0.84 | 1.07 | 0.86 | 0.983 | 1.04 | 1.01 | 0.865 | 0.563 | 0.487 | 0.591 | 0.552 | 0.435 | 0.848 | 1.03 | 0.797 | 0.848 | 0.95
3 | NCI-H1944 | 1.1 | 0.955 | 1.07 | 1.08 | 0.911 | 0.917 | 1.01 | 0.929 | 0.895 | 0.283 | 0.299 | 0.313 | 0.368 | 0.325 | 1.11 | 0.98 | 1.16 | 1.21 | 1.03
4 | BEN | 0.991 | 0.895 | 0.87 | 0.903 | 0.888 | 0.894 | 1.03 | 0.976 | 0.668 | 0.559 | 0.487 | 0.532 | 0.697 | 0.623 | 0.834 | 0.768 | 0.86 | 0.906 | 0.813
5 | ABC-1 | 0.758 | 0.843 | 1.03 | 0.94 | 0.769 | 0.901 | 0.887 | 0.817 | 1.07 | 0.688 | 0.725 | 0.712 | 0.732 | 0.866 | 1.21 | 0.85 | 1.12 | 1.18 | 1.44
6 | H3255 | 0.913 | 0.808 | 0.84 | 1.02 | 0.913 | 0.995 | 0.946 | 0.93 | 0.881 | 0.556 | 0.486 | 0.481 | 0.491 | 0.56 | 0.926 | 0.836 | 0.761 | 0.916 | 0.642
7 | NCI-H1355 | 1.05 | 0.918 | 0.884 | 1.12 | 0.907 | 1.01 | 1.01 | 0.914 | 0.973 | 0.423 | 0.396 | 0.493 | 0.512 | 0.316 | 1.21 | 0.947 | 1.1 | 1.12 | 1.14
8 | HCC-366 | 1.12 | 0.979 | 0.983 | 1.12 | 0.951 | 0.966 | 1.09 | 1.06 | 0.942 | 0.118 | 0.0988 | 0.149 | 0.214 | 0.106 | 0.566 | 0.611 | 0.486 | 0.603 | 0.522
